Experimental data from a melting point compilation (Tetko et al.; mined from patent text by program, amines drawn as free bases though some values may be those of a salt).

| SMILES | melting point |
| --- | --- |
| COc1cc(OC)c(C(=O)O)c(C(F)(F)F)n1 | 194 to 198 °C |
| COc1ccc2c(c1)C(C)(CC#N)C(=O)N2C (stereo not drawn) | 75.5 to 76 °C |
| CCCC(O)P(=O)(O)OCCCN (stereo not drawn) | 188 °C |
| C=C(C)c1ccc(C2COc3c(C)c(C)c(NC(=O)CC(C)(C)C)c(C)c32)cc1OC (stereo not drawn) | 186 to 187 °C |
| Cc1c(-c2ccc(O)cc2)sc(C=NO)c1-c1ccc(O)cc1 | 233 to 234 °C |
| O=C(O)CCCOc1cccc(CCCCCCOc2cc(-c3ccsc3)cc(-c3ccc4c(c3)OCO4)c2)c1CCC(=O)O | 110 to 112 °C |
| NCC1Cc2cc(-c3ccccc3F)cc(F)c2O1 (stereo not drawn) | > 250 °C |
| Fc1cc(CCl)c(F)cc1CCl | 62.5 to 64.5 °C |
| COc1cc2c(cc1CNC1CCCNC1c1ccccc1)N(C)C(=O)CC2(C)C (stereo not drawn) | > 280 °C |
| CNC(=C[N+](=O)[O-])NCCCCOc1cccc(CCCN(C)C)c1 | 79 to 80.5 °C |
| Cc1ccc(CN2CC=C(/C=C/c3cccc(Cl)c3)CC2)cc1 | 86 to 88 °C |
| COC(=O)c1cc(NC(=O)c2ccnc(C)c2)c2cc(Cc3ccc(F)cc3)cnc2c1O | 229 to 230 °C |
| COc1cc(C(F)(F)F)nn1-c1ccc(NC(=O)c2ccccc2F)cc1 | 167 to 168 °C |
| CCCCC(CC)COc1cccc2c1C(=O)c1cccc(OCC(CC)CCCC)c1C2=O (stereo not drawn) | 105 °C |
| CCOC(=O)c1[nH]c(C(=O)OCC)c(C)c1C | 66 to 68 °C |
| COc1cc(OC)c(-c2cccs2)cc1C#CC(=O)c1ccc(C(=O)O)cc1 | 220 °C |
| CCCCN(Cc1ccc2cc(O)ccc2c1)C(=O)c1c(C)oc2ccccc12 | 126 to 128 °C |
| N#Cc1cnn2c(C(F)(F)F)cc(-c3ccc(C(F)(F)F)c(F)c3)nc12 | 184 °C |
| COc1c(N2CCNC(CF)(CF)C2)c(F)cc2c(=O)c(C(=O)O)cn(C3CC3F)c12 (stereo not drawn) | 164 to 166 °C |
| CS(=O)c1nc(-c2ccccc2)cs1 (stereo not drawn) | 104 to 105 °C |
| CCCCCC(C)C(C)c1cc(O)c2c3c(c(=O)oc2c1)SCC3 (stereo not drawn) | 165 to 166 °C |
| Fc1ccc(OC(CCN2CCN(c3ccccc3)CC2)c2ccccc2)cc1 (stereo not drawn) | 80 to 82 °C |

| SMILES | melting point |
| --- | --- |
| CC(C)C(N)C(O)COc1ccccc1C1=NNC(=O)CC1 (stereo not drawn) | 124 to 126 °C |
| COc1ccc(CC(=O)c2c(OC)cc(OC)cc2OC)c(OC)c1 | 109 to 111 °C |
| CN(C)C=Nc1ncc(S(=O)(=O)NC(C)(C)C)c(O)n1 | 258 to 261 °C |
| CC(C)(C)CN1C(=O)[C@@H](CC(=O)Nc2cccc(-c3nnn[nH]3)c2)O[C@H](c2ccccc2Cl)c2cc(Cl)ccc21 (relative stereo) | 218 to 220 °C |
| CC(C)(C)OC(=O)CC(NC(=O)Nc1cccc(C(=O)O)c1)C(=O)Nc1ccccc1C(=O)c1ccccc1 (stereo not drawn) | 175 to 180 °C |
| CCc1cc(C)cc(CC)c1CC(=O)O | 124 °C |
| O=C1N(C(c2ccccc2)c2ccccc2)c2ccccc2C12COc1ccc(F)cc12 (stereo not drawn) | 182 to 184 °C |
| CC(=O)Nc1c([N+](=O)[O-])cc(Br)c2c1CCN(C(C)=O)C2 | 171 °C |
| O=C(O)CCCc1nc(-c2cccnc2)c(-c2ccccc2)s1 | 141 to 142 °C |
| O=C(CNC(=O)c1cccc(-c2cccc3oc(Cc4cccc(C(F)(F)F)c4)cc23)c1)NCCO | 89 to 94 °C |
| Cc1nc(N)nc(N)c1-c1cc(Br)ccc1Cl | 212 to 216 °C |
| c1ccc(CNc2c(-c3ccccc3)sc3ccccc23)cc1 | 52 to 53 °C |
| COc1ccc(C)cc1NC(=O)Nc1ccc(N2CCN(Cc3ccccc3)CC2)cc1 | 184 to 186 °C |
| Nc1nc2c(ncn2CCC(COCc2ccccc2)COCc2ccccc2)c(=O)[nH]1 | 210 to 224 °C |
| CCOc1ccc(C2=NNC(=O)CC2)c(OCC)c1 | 148 to 150 °C |
| Cc1ccc(CNc2c(NC(C)(C)C)c(=O)c2=O)c(C)c1 | 228 to 229 °C |
| COC1([N+](=O)[O-])C=CC(C=Cc2ccccc2)=CC1 (stereo not drawn) | 131 to 132 °C |
| CCNc1c(C#N)cnn1-c1c(F)c(F)c(C(F)(F)F)c(F)c1F | 168 °C |
| CC1(C(=O)O)CCC2(C)CCC3(C)C(=CCC4C5(C)CCC(O)C(C)(C)C5CCC43C)C2C1 (stereo not drawn) | 329 to 331 °C |
| N#Cc1cc([N+](=O)[O-])ccc1NCCCn1ccnc1 | 177 °C |
| COc1cc2c(CC(=O)O)c(C)n(C(=O)c3ccc(Cl)s3)c2cc1F | 169 °C |
| O=C(Nc1cccnc1)N1CCN(c2cc(-c3cccc(F)c3)ncn2)CC1 | 205 to 206 °C |

| SMILES | melting point |
| --- | --- |
| CCCCCCCCCCCCc1cnn(C(C(=O)O)c2ccccc2)n1 (stereo not drawn) | 94 to 98 °C |
| O=Cc1cc([N+](=O)[O-])c(CCl)cc1O | 135 °C |
| CCN1C(=O)Cc2cccc(OC(=O)CCl)c21 | 105 to 110 °C |
| COC(=O)C(C)=C1CCC2C3CCC4=CC(=O)CCC4(C)C3CCC12C (stereo not drawn) | 149 to 151 °C |
| CNS(=O)(=O)c1cc2c(c(C(=O)NC3CCN(C4CCCCC4)C3)c1)OCCO2 (stereo not drawn) | 160 to 161 °C |
| Cc1cc(F)ccc1-c1cscc1-c1ccc(S(C)(=O)=O)cc1 | 158 to 160 °C |
| CC(C)OC(=O)Cc1ccc2c(c1)C(=O)c1sccc1CO2 | 92 to 94 °C |
| Nc1nc(Cl)c(Cl)nc1CO | 174 to 176 °C |
| Clc1cc2c(nn1)CCCCCCCCCC2 | 126 to 128 °C |
| Cc1c(C(=O)O)ncc2[nH]c3ccc(C4CC=CCC4)cc3c12 (stereo not drawn) | 284 to 285 °C |
| CCCOc1ccc(CO)nc1Cl | 59 to 60 °C |
| CC(=O)OC1CC=C(CCCCCCC(=O)O)C1=O (stereo not drawn) | 62 to 65 °C |
| Cc1ccn(-c2ccc(C(=O)N3Cc4cccn4Cc4ccccc43)c(Cl)n2)n1 | 171 to 172 °C |
| Cc1ccc(C(=O)Oc2c(N3CCCC3)c(=O)n(-c3ccccc3)c3ncccc23)cc1 | 216 to 217 °C |
| Cc1occc1C(=O)N(O)C1CCCCC1 | 108 to 110 °C |
| O=Cc1ccc2c(c1)C=C(C(=O)O)C(C(F)(F)F)O2 (stereo not drawn) | 211 to 216 °C |
| COc1ccc(S(N)(=O)=O)cc1C(=O)NC1CCN(CC2CC2)C1 (stereo not drawn) | 150 °C |
| O=C(O)/C=C(/c1ccccc1)c1ccc2ccccc2c1 | 170 to 172 °C |
| O=C1CC2CCSc3sccc3C2=NN1c1ccc(Cl)cc1 (stereo not drawn) | 134 to 135 °C |
| CC(C)(C)c1cc(SCCc2nnco2)cc(C(C)(C)C)c1O | 87.5 to 89 °C |
| CC1(C)[C@@H]2[C@H]1[C@@H](O)O[C@H]2C(Cl)(Cl)Cl | 100 to 105 °C |

The remaining lines, values ahead:

| melting point | SMILES |
| --- | --- |
| 139 to 140 °C | CCC(CC)(NC(C)=O)c1ccc(CN2CCN(c3ccccc3)CC2)cc1 |
| 100 to 102 °C | N#Cc1ccc(C=C(C(=O)C2CC2)C(=O)C2CC2)cc1 |
| 74 to 74.5 °C | COCCOc1ccc([N+](=O)[O-])cc1S(=O)(=O)Cl |
| 144 to 145 °C | O=C(O)CCC(=NOCc1ccc(OCc2coc(-c3ccccc3)n2)cc1)c1ccccc1 |
| 215 °C | Cc1ccccc1-c1nc2ccccc2[nH]1 |
| 221 to 223 °C | CCOC(=O)c1cc(O)cc2cc(-c3ccc(O)cc3)oc12 |
| 185 to 186 °C | N#CC1Nc2ccccc2N2CCc3cccc1c32 (stereo not drawn) |
| 212 to 214 °C | Cc1ccc(-c2cn(C)cc(-c3ccc(C)cc3)c2=O)cc1 |
| 157 °C | N#CC(Cl)Cc1ccc(C(=O)O)cc1 (stereo not drawn) |
| 82 to 83 °C | Oc1c(C2=CCCCC2)ccc2ccccc12 |
| > 300 °C | COc1ccc2nc3[nH]cnc(=O)c3cc2c1 |
| 114 to 116 °C | CC(C)(CO)NCC(O)Cn1ccnc1[N+](=O)[O-] (stereo not drawn) |
| 313 to 315 °C | Cc1nc(N)nc(N)c1-c1cc(Cl)c([N+](=O)[O-])c(Cl)c1Cl |
| 134 to 139 °C | CCOC(=O)C1=C(C)NC(c2scnc2C)=NC1c1ccc(F)cc1Cl (stereo not drawn) |
| 148 to 150 °C | O=c1[nH]nnn1-c1ccc([N+](=O)[O-])cc1F |
| 134 to 136 °C | CC(C)Cn1cccc1C(=O)C(C#N)C(=O)Nc1ccccc1 (stereo not drawn) |
| 263 to 265 °C | COc1cc2c(cc1S(=O)(=O)c1ccc(C)cc1)[C@@H](N1CCCC1=O)[C@H](O)C(C)(C)O2 (relative stereo) |
| 90 to 91 °C | CCOC(=O)CCc1ccc2cc(O)ccc2c1 |
| 78 °C | COc1c(Cl)cc(OCC=C(Cl)Cl)cc1C=O |

| melting point | SMILES |
| --- | --- |
| 78 to 80 °C | COC1CC(C)(C)C(OC(=O)c2ccccc2)C(OC(=O)c2ccccc2)C=C1C (stereo not drawn) |
| 136 to 138 °C | CC(Oc1cccc(Cl)c1)c1nnc(N)s1 (stereo not drawn) |
| 116 to 118 °C | CCN(C)c1nc2sc3c(NCc4ccco4)ncnc3c2c2c1CCC(C)(C)C2 |
| 127 to 129 °C | CCOC(=O)CC1CCC2C3CC=C4C(C)(C)C(O)CCC4(C)C3CCC12C (stereo not drawn) |
| 57 to 59 °C | COC(=O)c1ccc2c(c1C(=O)OC)OCO2 |
| 293 to 294 °C | CNS(=O)(=O)c1cnc2ccc(OC)cc2c1O |
| 137 to 138 °C | O=C(O)CCc1cn(Cc2ccc(OCc3csc(-c4cnccn4)n3)cc2)cc1-c1ccccc1 |
| 157 to 160 °C | CCOC(=O)COc1cnc(S)nc1O |
| 83 to 84 °C | COc1cccc(Nc2ccnc(Nc3cc(OC)c(OC)c(OCc4ccccc4)c3)n2)c1 |
| 105 to 107 °C | Cc1c2c(cc3ccc(=O)oc13)C=CC(C)(C)O2 |
| 178 to 180 °C | COC(=O)c1cccc(NC(=S)Nc2cc(C(=O)Nc3ccccc3)ccc2OC)c1 |
| 246 to 248 °C | COc1cc(OC)c(/C=C2/C(=O)NC(=O)/C2=C/c2ccccc2)c(OC)c1 |
| 180 to 184 °C | CCCn1c(=O)c2c(N)n(C(=O)OC)nc2c2ccccc21 |
| 211 °C | FC(F)(F)c1ccc(-c2cc(C(F)(F)F)n3cnc(-c4ccncc4)c3n2)cc1C(F)(F)F |
| 135 to 136 °C | Cc1ccc(S(=O)(=O)N2CCCC(CS(=O)(=O)c3ccccc3)C2)cc1 (stereo not drawn) |
| 170 to 171 °C | COc1cn(-c2cccc(C(F)(F)F)c2)nc(C(=O)N(C)OC)c1=O |
| 125 °C | CCOC(=O)c1ccc(C(=O)c2ccc(N)cc2)cc1 |
| 189 to 194 °C | COc1cc(-c2c(-c3ccc(F)cc3)nc3ccc(N4CCN(C)CC4)nn23)ccn1 |
| 132 to 136 °C | Nc1nc2c(s1)CCN(CC=Cc1cccc(Cl)c1)CC2 |
